From patent US20190192455A1, “USE OF CELIPROLOL FOR TREATING KYPHOSCOLIOTIC EHLERS-DANLOS SYNDROME” (Assistance Publique-Hospitaux de Paris (AP-HP), priority 2017, published 2019)

What was measured:
vascular EDS patients = vascular EDS patients taking celiprolol, compared to placebo (Ong et al., 2010); cited from earlier work
[1] = test system: kyphoscoliotic EDS patient; experiment: Case report: celiprolol in prevention of further arterial events in a kyphoscoliotic EDS patient; type: in vivo, human
Source text: All ruptures occurred following minor trauma. The right eye ruptured twice, the left eye once only. […] Their family history was remarkable by the death of their only and younger sibling, by spontaneous abdominal aortic rupture. Their phenotype was similar to their […] sibling's.
Physical examination evidenced major cutaneous fragility (bruising) and dystrophic scars. […] furthermore presented a severe kyphoscoliosis and diffuse joint hypermobility (Beighton score 8/9) with instability, particularly of the left shoulder (recurrent dislocations). Further osteoarticular signs were pes planus and minor pectus excavatum. […] The dissecting aneurysm of the celiac trunk also remained stable and a complete regression of the extension of the dissection to the SMA was noted. Two years later, the patient presented with similar pain in the left calf. Doppler ultrasound documented a left tibial anterior dissecting aneurysm. This second clinical event also resolved medically. Celiprolol was initiated and up-titrated to the optimally tolerated dose (400 mg/day) in prevention of further arterial events.

Compound: CCN(CC)C(=O)Nc1ccc(OCC(O)CNC(C)(C)C)c(C(C)=O)c1 (stereo not shown) [Celiprolol, N′-(3-Acetyl-4-(3-((1,1-dimethylethyl)amino)-2-hydroxypropoxy)phenyl)-N, N-diethylurea]
- incidence of arterial rupture or dissection (vascular EDS patients): decreased incidence of arterial rupture or dissection
- clinical course (arterial events) under celiprolol ([1]; one patient with recurrent arterial dissections, up-titrated to 400 mg/day, 3 years follow-up): remained clinically silent
- systematic arterial monitoring for silent arterial defects ([1]; same patient, 400 mg/day, 3 years follow-up): did not evidence further silent arterial defects
- novel arterial manifestation under celiprolol treatment ([1]; same patient, four year follow-up): without novel arterial manifestation
